In brackets after ≈: the same amount, converted by molar mass. Where a name gives a salt, the structure may show the parent alone.
What was measured:
[1] = Selectivity index, ratio of IC50 for human 293T cells to MIC for Mycobacterium tuberculosis H37Rv; type: toxicity, cell-based; conditions: read-out: Selectivity Index
[2] = test system: HEK-293T; assay: Cytotoxicity against human 293T cells; type: cell-based
[3] = test system: Mycobacterium tuberculosis; assay: Antimycobacterial activity against Mycobacterium tuberculosis H37Rv after 45 days; type: functional

Row | SMILES | selectivity ratio [1] | IC50 [2] | MIC [3]
1 | CC1(C)[C@@H]2CC[C@@]1(C)[C@H](NC(=O)[C@@H](O)c1ccccc1)C2 | 619 | 105 µM | 0.17 µM (≈ 0.0489 µg/mL)
2 | CO[C@H]1/C=C/O[C@@]2(C)Oc3c(C)c(O)c4c(O)c(c(/C=N/N5CCN(C)CC5)c(O)c4c3C2=O)NC(=O)/C(C)=C\C=C\[C@H](C)[C@H](O)[C@@H](C)[C@@H](O)[C@@H](C)[C@H](OC(C)=O)[C@@H]1C [RIFAMPIN] |  |  | 0.06 µM (≈ 0.0494 µg/mL)
3 | CC(C)C[C@H](O)C(=O)N[C@@H]1C[C@H]2CC[C@]1(C)C2(C)C | 14.9 | 112 µM | 7.48 µM (≈ 2 µg/mL)
4 | CSCC[C@H](O)C(=O)N[C@@H]1C[C@H]2CC[C@]1(C)C2(C)C | 1010 | 172 µM | 0.17 µM (≈ 0.0485 µg/mL)
5 | CC(C)[C@H](O)C(=O)N[C@@H]1C[C@H]2CC[C@]1(C)C2(C)C | > 25.3 | > 200 µM | 7.89 µM (≈ 2 µg/mL)
6 | CC[C@H](C)[C@H](O)C(=O)N[C@@H]1C[C@H]2CC[C@]1(C)C2(C)C | 13.6 | 107 µM | 7.48 µM (≈ 2 µg/mL)
7 | CC1(C)[C@@H]2CC[C@@]1(C)[C@H](NC(=O)[C@@H](O)Cc1ccccc1)C2 | 330 | 52.8 µM | 0.16 µM (≈ 0.0482 µg/mL)
8 | CC[C@@H](CO)NCCN[C@@H](CC)CO [ETHAMBUTOL HYDROCHLORIDE] |  |  | 7.22 µM

Source: ChEMBL document CHEMBL3098088, “Synthesis and antimycobacterial activity of novel camphane-based agents” (Bioorg Med Chem Lett, 2014)
